The logP is the decadic logarithm of the partition coefficient of the neutral form, usually between octanol and water. Low readings indicate lower lipophilicity, high ones higher lipophilicity. As a reminder, the chromatographic logP is lipophilicity estimated from chromatographic retention. Low values mean a more hydrophilic compound, high ones a more lipophilic compound.

“And” between values parts separate entries of the source, which are not always exact repeats. Equal entries are not always repeated.

System in one series: not listed separately
The series is described as follows: log P determination by HPLC on reversed-phase column (C 18), EEC Directive 79/831 Annex V.A8. It is filed as physicochemical. The note with it: C 18 reversed phase, 40° C., 0.1% aqueous formic acid and acetonitrile, linear gradient 10% to 90% acetonitrile. The procedure:
In table 1, the log P values were determined in accordance with EEC Directive 79/831 Annex V.A8 by HPLC (High Performance Liquid Chromatography) on a reversed-phase column (C 18), using the method described below: Temperature: 40° C.; Mobile phases: 0.1% aqueous formic acid and acetonitrile; linear gradient from 10% acetonitrile to 90% acetonitrile. Calibration was carried out using unbranched alkan-2-ones (comprising 3 to 16 carbon atoms) with known log P values (determination of the log P values by the retention times using linear interpolation between two successive alkanones). lambda-max-values were determined using UV-spectra from 200 nm to 400 nm and the peak values of the chromatographic signals.
`Cn1nc(C(F)F)c(C(=O)N(Cc2cccnc2C2(C)CC2)C2CC2)c1F` [I.01]: the logP was determined as 1.28. For the molecule `Cn1nc(C(F)F)c(C(=O)N(Cc2cccnc2C2(C)CC2)C2CC2)c1Cl` [I.02], the logP was determined as 1.41. In turn, `Cn1nc(C(F)F)c(C(=O)N(Cc2cc(Cl)cnc2C2(C)CC2)C2CC2)c1F` [I.03] showed a logP of 2.88. As to `Cn1nc(C(F)F)c(C(=O)N(Cc2cc(Cl)cnc2C2(C)CC2)C2CC2)c1Cl` [I.04], the log partition coefficient (logP) was 3.09. The molecule `Cc1cnc(C2(C)CC2)c(CN(C(=O)c2c(C(F)F)nn(C)c2F)C2CC2)c1` [I.05] had a logP of 1.42. The molecule `Cc1cnc(C2(C)CC2)c(CN(C(=O)c2c(C(F)F)nn(C)c2Cl)C2CC2)c1` [I.06] showed a logP of 1.54. Turning to `Cn1nc(C(F)F)c(C(=O)N(Cc2cc(Br)cnc2C2(C)CC2)C2CC2)c1Cl` [I.07], the logP came to 3.12. Molecule `Cn1nc(C(F)F)c(C(=O)N(Cc2cc(Br)cnc2C2(C)CC2)C2CC2)c1F` [I.08] displayed a logP of 2.91. Still for that read-out and setting: the figure for `Cn1nc(C(F)F)c(C(=O)N(Cc2sccc2C2(C)CC2)C2CC2)c1F` [I.09] is 3.70; for `Cn1nc(C(F)F)c(C(=O)N(Cc2sccc2C2(C)CC2)C2CC2)c1Cl` [I.10] it is 3.85. As for `Cc1cc(C2(C)CC2)c(CN(C(=O)c2c(C(F)F)nn(C)c2F)C2CC2)s1` [I.11], the logP was 4.13. As for `Cc1cc(C2(C)CC2)c(CN(C(=O)c2c(C(F)F)nn(C)c2Cl)C2CC2)s1` [I.12], the log partition coefficient (logP) came out at 4.27. The logP values of the last two molecules are within 0.2 log units of each other. `Cn1nc(C(F)F)c(C(=O)N(Cc2sccc2C2(Cl)CC2)C2CC2)c1F` [I.13] gave a logP of 3.37. `Cn1nc(C(F)F)c(C(=O)N(Cc2sccc2C2(Cl)CC2)C2CC2)c1Cl` [I.14] returned a logP of 3.55.

`Cc1cc(C2(Cl)CC2)c(CN(C(=O)c2c(C(F)F)nn(C)c2Cl)C2CC2)s1` [I.16]: the lipophilicity (logP) was 3.92.

The molecule `COC1(c2cc(C)sc2CN(C(=O)c2c(C(F)F)nn(C)c2F)C2CC2)CC1` [I.17] gave a logP of 3.37. The molecule `Cn1nc(C(F)F)c(C(=O)N(Cc2sc(Br)cc2C2(Cl)CC2)C2CC2)c1F` [I.18] showed a logP of 4.15. `Cn1nc(C(F)F)c(C(=S)N(Cc2cccnc2C2(C)CC2)C2CC2)c1Cl` [I.19] returned a logP of 1.63. `Cn1nc(C(F)F)c(C(=S)N(Cc2cccnc2C2(C)CC2)C2CC2)c1F` [I.20] gave a logP of 1.53. On the same count and under the same terms, the same measure for `Cc1cnc(C2(C)CC2)c(CN(C(=S)c2c(C(F)F)nn(C)c2Cl)C2CC2)c1` [I.21]: 1.69; for `Cc1cnc(C2(C)CC2)c(CN(C(=S)c2c(C(F)F)nn(C)c2F)C2CC2)c1` [I.22]: 1.59. `Cn1nc(C(F)F)c(C(=S)N(Cc2cc(Cl)cnc2C2(C)CC2)C2CC2)c1F` [I.23] gave a log partition coefficient (logP) of 3.52. `Cn1nc(C(F)F)c(C(=S)N(Cc2cc(Cl)cnc2C2(C)CC2)C2CC2)c1Cl` [I.24] showed a logP of 3.71. On to `Cn1nc(C(F)F)c(C(=S)N(Cc2sccc2C2(Cl)CC2)C2CC2)c1Cl` [I.25], for which the logP came out at 4.19. Regarding `Cc1cc(C2(Cl)CC2)c(CN(C(=S)c2c(C(F)F)nn(C)c2Cl)C2CC2)s1` [I.26], the logP is recorded as 4.56. With `Cn1nc(C(F)F)c(C(=S)N(Cc2sccc2C2(C)CC2)C2CC2)c1Cl` [I.27], the lipophilicity (logP) was determined as 4.44. Consider `Cn1nc(C(F)F)c(C(=S)N(Cc2sccc2C2(C)CC2)C2CC2)c1F` [I.28], for which the logP was found to be 4.28. Still for that read-out and setting: the figure for `Cn1nc(C(F)F)c(C(=O)N(Cc2cc(C3=CCCC3)cnc2C2(C)CC2)C2CC2)c1F` [I.29] is 2.05; for `Cn1nc(C(F)F)c(C(=O)N(Cc2cc(-c3ccsc3)cnc2C2(C)CC2)C2CC2)c1F` [I.30] it is 2.12; for `Cn1nc(C(F)F)c(C(=O)N(Cc2cc(-c3ccccc3)cnc2C2(C)CC2)C2CC2)c1Cl` [I.31] it is 2.33.

The molecule `C=Cc1cnc(C2(C)CC2)c(CN(C(=O)c2c(C(F)F)nn(C)c2Cl)C2CC2)c1` [I.32] showed a logP of 1.91.

The series is the same for the next values; noted with them: reversed-phase C18 HPLC column, C 18 reversed phase, 40° C., 0.1% aqueous formic acid and acetonitrile, linear gradient 10% to 90% acetonitrile.
Consider `Cc1cc(C2(Cl)CC2)c(CN(C(=O)c2c(C(F)F)nn(C)c2F)C2CC2)s1` [I.15, N-{[3-(1-chlorocyclopropyl)-5-methyl-2-thienyl]methyl}-N-cyclopropyl-3-(difluoromethyl)-5-fluoro-1-methyl-1H-pyrazole-4-carboxamide], for which the chromatographic logP worked out at 3.76.

In turn, `CC1(c2ccsc2CNC2CC2)CC1` [IIa.01, N-{[3-(1-methylcyclopropyl)-2-thienyl]methyl}cyclopropanamine] gave a chromatographic logP of 0.7. Still for that read-out and setting: the same measure for `ClC1(c2ccsc2CNC2CC2)CC1` [IIa.02, N-{[3-(1-chlorocyclopropyl)-2-thienyl]methyl}cyclopropanamine]: 0.87. Regarding `Cc1cc(C2(Cl)CC2)c(CNC2CC2)s1` [IIa.03, N-{[3-(1-chlorocyclopropyl)-5-methyl-2-thienyl]methyl}cyclopropanamine], the chromatographic logP amounted to 1.2. In the case of `COC1(c2cc(C)sc2CNC2CC2)CC1` [IIa.04, N-{[3-(1-methoxycyclopropyl)-5-methyl-2-thienyl]methyl}cyclopropanamine], the chromatographic logP stood at 1.07. As to `O=Cc1sccc1C1(Cl)CC1` [IV.01, 3-(1-chlorocyclopropyl)thiophene-2-carbaldehyde], the chromatographic logP was 2.41. Consider `Cc1cc(C2(Cl)CC2)c(C=O)s1` [IV.02, 3-(1-chlorocyclopropyl)-5-methylthiophene-2-carbaldehyde], for which the chromatographic logP is 2.75. Turning to `CC1(c2ccsc2CBr)CC1` [Va1.01, 2-(bromomethyl)-3-(1-methylcyclopropyl)thiophene], the chromatographic logP amounted to 2.14. Still for that read-out and setting: the same measure for `Cc1cc(C2(C)CC2)c(CBr)s1` [Va1.02, 2-(bromomethyl)-5-methyl-3-(1-methylcyclopropyl)thiophene]: 2.54; for `CC1(c2ccsc2CO)CC1` [Vc.01, [3-(1-methylcyclopropyl)-2-thienyl]methanol]: 2.09; for `Cc1cc(C2(C)CC2)c(CO)s1` [Vc.02, [5-methyl-3-(1-methylcyclopropyl)-2-thienyl]methanol]: 2.52. The same measure, in the same setting: the same measure for `N#CC1(c2ccsc2CO)CC1` [Vc.03, 1-[2-(hydroxymethyl)-3-thienyl]cyclopropanecarbonitrile]: 0.63.

Another series concerns Uromyces appendiculatus. The series is described as follows: In vivo preventive test on Uromyces appendiculatus (bean rust). The note with it: Table B2, dose 100 ppm, bean plants, comparison with isopropyl analogues of WO2012/059497. As for the experimental part:
EXAMPLE B: IN VIVO PREVENTIVE TEST ON UROMYCES APPENDICULATUS (BEAN RUST) Solvent: 5% by volume of Dimethyl sulfoxide • 10% by volume of Acetone Emulsifier: 1 μL of Tween® 80 per mg of active ingredient The active ingredients are made soluble and homogenized in a mixture of Dimethyl sulfoxide/Acetone//Tween® 80 and then diluted in water to the desired concentration. The young plants of bean are treated by spraying the active ingredient prepared as described above. Control plants are treated only with an aqueous solution of Acetone/Dimethyl sulfoxide/Tween® 80. After 24 hours, the plants are contaminated by spraying the leaves with an aqueous suspension of Uromyces appendiculatus spores. The contaminated bean plants are incubated for 24 hours at 20° C. and at 100% relative humidity and then for 10 days at 20° C. and at 70-80% relative humidity. The test is evaluated 11 days after the inoculation. 0% means an efficacy which corresponds to that of the control plants while an efficacy of 100% means that no disease is observed.
Take `Cc1cc(C(C)C)c(CN(C(=O)c2c(C(F)F)nn(C)c2F)C2CC2)s1` [CMP1, N-cyclopropyl-3-(difluoromethyl)-5-fluoro-N-[(3-isopropyl-5-methyl-2-thienyl)methyl]-1-methyl-1H-pyrazole-4-carboxamide, reference compound]: the Efficacy is reported as 65%. `Cc1cc(C(C)C)c(CN(C(=O)c2c(C(F)F)nn(C)c2Cl)C2CC2)s1` [CMP2, 5-chloro-N-cyclopropyl-3-(difluoromethyl)-N-[(3-isopropyl-5-methyl-2-thienyl)methyl]-1-methyl-1H-pyrazole-4-carboxamide, reference compound]: the Efficacy came out at 0%. `Cc1cc(C2(C)CC2)c(CN(C(=O)c2c(C(F)F)nn(C)c2F)C2CC2)s1` [I.11] gave an Efficacy of 100%.

Turning to `Cc1cc(C2(C)CC2)c(CN(C(=O)c2c(C(F)F)nn(C)c2Cl)C2CC2)s1` [I.12], the Efficacy is 100% and 92%.

The record behind these values is patent US20180139962A1, “FUNGICIDAL N-CYCLOALKYL-N-{[ORTHO-(1-SUBSTITUTED-CYCLOALKYL)HETEROARYL]METHYL}PYRAZOLE(THIO)CARBOXAMIDS” (Bayer CropScience Aktiengesellschaft, priority 2015, published 2018).
